Assays:
[1] = Particle size distribution measured using the Aerosizer with Pulse Jet Disperser; type: physicochemical; settings: average of three measurements
Excerpt: The Pulse Jet Disperser device (Amherst Processing Instruments) was used for powder dispersion. Three measurements were made for each sample and the results were averaged.

[2] = Relative sintering rates under high relative humidity; type: physicochemical; settings: about 23° C., about one day of exposure, compared with lactose
Experimental: Two experiments were carried out, one at about 85% relative humidity and another at about 95% relative humidity. The experiments ran over several days, but the largest increment occurs fairly early. Both experiments were carried out at room temperature (about 23° C.). […] Sintering of cellobiose is slower. […].

Row | Relative sintering rate (difference in number fraction Δf versus particle diameter) ([2]; approximately 85% relative humidity) | Relative sintering rate (difference in number fraction Δf versus particle diameter) ([2]; approximately 93% relative humidity) | SMILES | Mean Particle Size [1] [μm]
1 |  |  | O.OC[C@H]1O[C@@H](O[C@H]2[C@H](O)[C@@H](O)C(O)O[C@@H]2CO)[C@H](O)[C@@H](O)[C@H]1O (stereo partly shown) [Lactose, lactose monohydrate, reference compound] | 2.044
2 | slower | slower | O=C[C@H](O)[C@@H](O)[C@H](O[C@@H]1O[C@H](CO)[C@@H](O)[C@H](O)[C@H]1O)[C@H](O)CO [Cellobiose, cellobiose] | 2.032
